The source of these data is ChEMBL document CHEMBL1201862, “PubChem BioAssay data set” (2004).

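Growth conditions: 96-well plates. Treatment: test compound, 48 hours, 5 concentrations. Analysis: linear interpolation between bracketing concentrations; unreached endpoints set to highest concentration. GI50: concentration for 50% inhibition of growth.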 The source made the active and inactive calls. Cut-off read from the data, not from the text of the source: active = GI50 up to about 1.1 µM and inactive = higher.

Some test systems named below: NCI-H226; HOP-92; HCC 2998; LOX IMVI; NCI-H460; SF-539; NCI-H23; MDA-MB-435; NCI-H522; EKVX; NCI/ADR-RES; OVCAR-8; SNB-75; UO-31; T47D; BT-549; COLO 205; ACHN; CAKI-1; HCT-116.
What all share (experiment): NCI anticancer screen, dose series, 48 h

Turning to `CN(CC1(CO)CCC1)c1cc(Cl)nc(N)n1`, the GI50 with NCI-H226, with HOP-92, with HCC 2998, in the experiment on LOX IMVI, in the experiment on NCI-H460 and in the experiment with SF-539 was > 100 µM (inactive) each time. Further, the GI50 with NCI-H23 was > 100 µM (inactive); with MDA-MB-435, > 100 µM (inactive); in the experiment with NCI-H522, > 100 µM (inactive); in the experiment on EKVX, 43.3 µM (inactive); with NCI/ADR-RES it was > 100 µM (inactive); in the experiment on OVCAR-8, > 100 µM (inactive). Also, the GI50 with SNB-75 was 78.5 µM (inactive); in the experiment on UO-31 it was > 100 µM (inactive); with T47D, > 100 µM (inactive); with BT-549, > 100 µM (inactive); in the experiment on COLO 205, > 100 µM (inactive); with ACHN, > 100 µM (inactive). Also, the GI50 in the experiment with CAKI-1 and in the experiment with HCT-116 was > 100 µM (inactive) throughout.
For the molecule `Cn1c(=O)cc(NCc2ccc(Cl)cc2)[nH]c1=O`, the GI50 was > 100 µM (inactive) with NCI-H226; 19.3 µM (inactive) in the experiment with HOP-92; 99.5 µM (inactive) in the experiment with HCC 2998; > 100 µM (inactive) in the experiment on LOX IMVI; > 100 µM (inactive) in the experiment with NCI-H460; 32.4 µM (inactive) in the experiment with SF-539. For the same molecule, the GI50 is > 100 µM (inactive) with NCI-H23; > 100 µM (inactive) in the experiment on MDA-MB-435; 34.4 µM (inactive) in the experiment with NCI-H522; > 100 µM (inactive) in the experiment on EKVX; 72.9 µM (inactive) in the experiment with NCI/ADR-RES; 44.4 µM (inactive) in the experiment with OVCAR-8. In addition, the GI50 with SNB-75 is 24 µM (inactive); in the experiment with UO-31, 51.5 µM (inactive); in the experiment with T47D, 91.2 µM (inactive); with BT-549, 76.9 µM (inactive); in the experiment on COLO 205, > 100 µM (inactive); with ACHN, 49.7 µM (inactive). Besides, the GI50 with CAKI-1 was > 100 µM (inactive); with HCT-116, 52.6 µM (inactive).
Turning to `CN(C)CCNC(=O)C(C)(C)Oc1ccc(C(=O)c2ccc(Cl)cc2)cc1Cl`, the GI50 in the experiment with NCI-H226 is 14.7 µM (inactive); with HOP-92 it was 6 µM (inactive); in the experiment on HCC 2998, 5.21 µM (inactive); with LOX IMVI, 7.11 µM (inactive); with NCI-H460, 7.98 µM (inactive); with SF-539, 9.46 µM (inactive). Also, the GI50 was 9.86 µM (inactive) with NCI-H23; 5.6 µM (inactive) with MDA-MB-435; 15 µM (inactive) with NCI-H522; 11.2 µM (inactive) in the experiment on EKVX; 12.5 µM (inactive) with NCI/ADR-RES; 11.8 µM (inactive) in the experiment with OVCAR-8. Moreover, the GI50 in the experiment on SNB-75 was 11.5 µM (inactive); in the experiment on UO-31 it was 9.59 µM (inactive); with T47D, 10.4 µM (inactive); in the experiment with BT-549 it was 11.5 µM (inactive); in the experiment on COLO 205 it was 1.82 µM (inactive); in the experiment on ACHN it was 11 µM (inactive). Besides, the GI50 in the experiment on CAKI-1 was 13.1 µM (inactive); in the experiment on HCT-116 it was 7.4 µM (inactive).
As to `COc1ccc(/N=C2\C(=S)N(c3ccc(OC)cc3)/C(=N/S(=O)(=O)c3ccccc3)N2c2ccccc2)cc1`, the GI50 was 16 µM (inactive) with NCI-H226; 7.01 µM (inactive) with HOP-92; > 34.5 µM (inactive) in the experiment on HCC 2998; 3.59 µM (inactive) in the experiment on LOX IMVI; 23.8 µM (inactive) in the experiment with NCI-H460; 9.12 µM (inactive) in the experiment on SF-539. In addition, the GI50 in the experiment with NCI-H23 was 10.2 µM (inactive); with MDA-MB-435, 7.87 µM (inactive); in the experiment on NCI-H522, 1.64 µM (inactive); with EKVX, 16.4 µM (inactive); with NCI/ADR-RES, 23.6 µM (inactive); in the experiment with OVCAR-8 it was 3.95 µM (inactive). Also, the GI50 is 17.3 µM (inactive) with SNB-75; 3.59 µM (inactive) in the experiment on UO-31; 1.09 µM (active) in the experiment on T47D; 4.94 µM (inactive) in the experiment with BT-549; 8.81 µM (inactive) with COLO 205; 8.85 µM (inactive) in the experiment with ACHN. Moreover, the GI50 in the experiment on CAKI-1 is 13.2 µM (inactive); in the experiment on HCT-116, 6.64 µM (inactive).
`C[n+]1c2ccccc2c(CNC(CCC(N)=O)C(=O)O)c2ccccc21` (stereo not given): the GI50 in the experiment with NCI-H226 was 8.3 µM (inactive); in the experiment with HOP-92 it was 0.948 µM (active); in the experiment on HCC 2998 it was 4.24 µM (inactive); in the experiment on LOX IMVI it was 1.94 µM (inactive); with NCI-H460 it was 3.72 µM (inactive); in the experiment with SF-539, 2.34 µM (inactive). Moreover, the GI50 with NCI-H23 was 3.9 µM (inactive); in the experiment with MDA-MB-435 it was 2.55 µM (inactive); in the experiment with NCI-H522, 1.57 µM (inactive); in the experiment on EKVX, 6.75 µM (inactive); in the experiment with NCI/ADR-RES, 4.56 µM (inactive); in the experiment on OVCAR-8, 3.39 µM (inactive). Further, the GI50 in the experiment with SNB-75 was 5.22 µM (inactive); in the experiment with UO-31, 2.67 µM (inactive); in the experiment with T47D it was 0.0221 µM (active); with BT-549, 4.59 µM (inactive); in the experiment on COLO 205, 0.525 µM (active); with ACHN, 1.76 µM (inactive). Besides, the GI50 with CAKI-1 is 2.36 µM (inactive); in the experiment on HCT-116, 0.302 µM (active).
Turning to `NNc1ccccc1Cl`, the GI50 is > 100 µM (inactive) in the experiment on NCI-H226; > 100 µM (inactive) in the experiment on HOP-92; > 100 µM (inactive) in the experiment on HCC 2998; > 100 µM (inactive) in the experiment on LOX IMVI; 41.4 µM (inactive) in the experiment with NCI-H460; > 100 µM (inactive) in the experiment with SF-539. Further, the GI50 with NCI-H23, in the experiment with MDA-MB-435, in the experiment with NCI-H522, in the experiment on EKVX, in the experiment with NCI/ADR-RES and in the experiment with OVCAR-8 was > 100 µM (inactive) in each case. Also, the GI50 with SNB-75 is > 100 µM (inactive); in the experiment on UO-31, 89.1 µM (inactive); with T47D, 59.8 µM (inactive); in the experiment with BT-549, > 100 µM (inactive); in the experiment on COLO 205, 29 µM (inactive); in the experiment with ACHN, > 100 µM (inactive). Also, the GI50 in the experiment on CAKI-1 is 30.9 µM (inactive); in the experiment on HCT-116, > 100 µM (inactive).
For the molecule `OCCCCCNc1nc(O)c2[nH]cnc2n1`, the GI50 with NCI-H226 was > 100 µM (inactive); in the experiment with HOP-92, > 100 µM (inactive); in the experiment on HCC 2998 it was > 100 µM (inactive); with LOX IMVI, > 100 µM (inactive); in the experiment with NCI-H460 it was > 100 µM (inactive); with SF-539, 8.17 µM (inactive). Also, the GI50 in the experiment with NCI-H23, in the experiment on MDA-MB-435, with NCI-H522, in the experiment with EKVX, in the experiment on NCI/ADR-RES and in the experiment on OVCAR-8 was > 100 µM (inactive) throughout. The GI50 in the experiment with SNB-75, in the experiment on UO-31, in the experiment with T47D, with BT-549, with COLO 205 and in the experiment with ACHN was > 100 µM (inactive) in each case. The GI50 in the experiment on CAKI-1 and with HCT-116 was > 100 µM (inactive) throughout.
